This is an account of results in patent publication EP4545542A1, “TRANSITION METAL CLUSTER COMPOUNDS FOR ELECTROCHEMICAL APPLICATIONS” (Litricity GmbH, priority 2023, dated 2025).

In general, Solubility refers to the dissolved amount per volume that the medium holds. A higher Solubility goes with much dissolved substance.

The data set is described as follows: Solubility by the shake-flask method.
Where [1] appears, read: shake-flask method, room temperature (25 °C, pH = 5.7 in 0.3 M of Na2SO4), Table 1, influence of the cation.
Where [2] appears, read: Table 2: Solubility test of Fe28 clusters (acid linkers; Fe28+Tartaric acid with Ba, Ca, Mg counterions), conditions not given separately.

Experimental: Solubility was determined by the shake-flask method (table 1) at room temperature (25 °C, pH = 5.7 in 0.3 M of Na2SO4).

In the case of “Li2K18[Fe28(µ3-O)8(tart)16(OAc)24] ×H2O [Li2K18Fe28]”, the Solubility under setting [1] was 48 mM. That is a millimolar value.

Regarding “K20[Fe28(µ3-O)8(tart)16(OAc)24] ×H2O [Cluster K20Fe28]”, the Solubility under setting [1] was determined as 50 mM.

Under setting [1], “Na20[Fe28(µ3-O)8(tart)16(OAc)24] ×H2O [Na20Fe28]” returned a Solubility of 70 mM. This Solubility and that of the substance before are within 1.5-fold of each other.

For the substance “Ba10[Fe28(µ3-O)8(tart)16(OAc)24] ×H2O [Ba10Fe28]”, the Solubility under setting [2] was determined as 84 mM.

For the substance “Mq10[Fe28(µ3-O)8(tart)16(OAc)24] ×H2O [Mg10Fe28]”, the Solubility under setting [2] worked out at 1 mM.

Consider “K2Li18[Fe28(µ3-O)8(tart)16(OAc)24] ×H2O [Cluster K2Li28Fe28]”, for which, under setting [1], the Solubility is reported as 88 mM. This lies in the millimolar range.

The substance “Ca10[Fe28(µ3-O)8(tart)16(OAc)24] ×H2O [Ca10Fe28]” returned a Solubility under setting [2] of 2 mM. That is a millimolar value.

In the case of “Li2Na18[Fe28(µ3-O)8(tart)16(OAc)24] ×H2O [Li2Na18Fe28]”, under setting [1], the Solubility was 83 mM. This counts as millimolar.
